Assay results published in ChEMBL document CHEMBL2034920, “Protuboxepin A, a marine fungal metabolite, inducing metaphase arrest and chromosomal misalignment in tumor cells” (Bioorg Med Chem, 2012).
The source made the active and inactive calls. No cut-off for these calls is given here.

Assays:
[1] = Cell cycle arrest in human Hep3B cells assessed as accumulation at G0/G1 phase at 160 uM after 24 hrs by flow cytometry (reference value: 52.99%); format: functional, cell-based; conditions: Hep 3B2
[2] = target: Cyclin-dependent kinase 1 (Homo sapiens) (UniProt P06493); assay: Inhibition of CDC2 phosphorylation at Tyr15 in human Hep3B cells at 160 uM after 18 hrs by Western blotting analysis; format: cell-based; conditions: Hep 3B2
Chain of Cyclin-dependent kinase 1 (Homo sapiens) (P06493 whole entry, looked up): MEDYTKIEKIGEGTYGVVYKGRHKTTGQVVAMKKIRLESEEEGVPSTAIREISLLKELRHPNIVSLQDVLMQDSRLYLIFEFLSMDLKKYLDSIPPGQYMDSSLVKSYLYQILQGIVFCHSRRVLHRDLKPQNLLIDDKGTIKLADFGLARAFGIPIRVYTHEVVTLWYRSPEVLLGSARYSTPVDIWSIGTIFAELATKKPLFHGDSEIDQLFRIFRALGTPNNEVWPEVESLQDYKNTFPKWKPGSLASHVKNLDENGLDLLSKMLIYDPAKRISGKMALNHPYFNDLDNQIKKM

[3] = Cell cycle arrest in human Hep3B cells assessed as accumulation at S phase at 160 uM after 24 hrs by flow cytometry (reference value: 11.18%); format: functional, cell-based; conditions: Hep 3B2
[4] = Cell cycle arrest in human Hep3B cells assessed as accumulation at M phase at 160 uM after 24 hrs by flow cytometry (reference value: 6.24 +/- 2.14%); format: functional, cell-based; conditions: Hep 3B2
[5] = Cell cycle arrest in human Hep3B cells assessed as accumulation at G2/M phase at 80 uM after 24 hrs by flow cytometry (reference value: 24.37%); format: functional, cell-based; conditions: Hep 3B2
Tubulin (Sus scrofa) [6] = target: T1, Tubulin (Sus scrofa) (UniProt P02554+P02550); assay: Induction of porcine tubulin polymerization at 160 uM measured for every 1 min for 60 mins by spectrophotometry; format: protein assay
T1 sequence (P02550 whole entry, looked up): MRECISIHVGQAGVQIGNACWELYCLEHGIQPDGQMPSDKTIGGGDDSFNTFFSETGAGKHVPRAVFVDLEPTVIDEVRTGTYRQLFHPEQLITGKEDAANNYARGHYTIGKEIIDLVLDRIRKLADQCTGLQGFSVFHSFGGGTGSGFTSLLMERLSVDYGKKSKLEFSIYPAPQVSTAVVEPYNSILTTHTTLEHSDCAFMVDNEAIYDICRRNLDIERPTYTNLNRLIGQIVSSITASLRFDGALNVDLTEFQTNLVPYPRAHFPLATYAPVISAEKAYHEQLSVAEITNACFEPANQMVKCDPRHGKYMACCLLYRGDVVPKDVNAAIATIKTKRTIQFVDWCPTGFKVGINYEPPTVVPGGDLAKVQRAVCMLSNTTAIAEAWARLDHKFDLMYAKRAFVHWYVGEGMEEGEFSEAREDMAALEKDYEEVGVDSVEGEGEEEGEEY
T1 sequence (P02554 whole entry, looked up): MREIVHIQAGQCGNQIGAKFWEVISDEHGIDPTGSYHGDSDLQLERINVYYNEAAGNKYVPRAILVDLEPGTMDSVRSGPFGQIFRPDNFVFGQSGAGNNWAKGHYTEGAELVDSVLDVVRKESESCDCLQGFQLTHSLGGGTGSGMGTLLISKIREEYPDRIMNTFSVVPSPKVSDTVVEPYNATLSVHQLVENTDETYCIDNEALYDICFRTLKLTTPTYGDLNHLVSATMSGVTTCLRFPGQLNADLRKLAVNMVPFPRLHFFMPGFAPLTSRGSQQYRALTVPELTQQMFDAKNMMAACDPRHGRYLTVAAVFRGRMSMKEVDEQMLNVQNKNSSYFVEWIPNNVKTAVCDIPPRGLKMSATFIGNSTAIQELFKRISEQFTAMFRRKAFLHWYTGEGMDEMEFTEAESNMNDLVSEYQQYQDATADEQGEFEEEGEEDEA

[7] = Cell cycle arrest in human Hep3B cells assessed as induction of chromosome misalignment in nuclei at 80 to 160 uM after 24 hrs by immunofluorescence assay; format: functional, cell-based; conditions: Hep 3B2
[8] = Cell cycle arrest in human Hep3B cells assessed as accumulation at subG1 phase at 160 uM after 24 hrs by flow cytometry (reference value: 1.14%); format: functional, cell-based; conditions: Hep 3B2
Hep 3B2 [9] = assay: Induction of chromosome misalignment in nucleus of human Hep3B cells at 80 to 160 uM after 18 hrs by immunofluorescence staining; format: functional, cell-based
[10] = Cell cycle arrest in human Hep3B cells assessed as accumulation at subG1 phase at 80 uM after 24 hrs by flow cytometry (reference value: 1.14%); format: functional, cell-based; conditions: Hep 3B2
Hep 3B2 [11] = assay: Induction of apoptosis in human Hep3B cells assessed as induction of PARP cleavage at 27 to 160 uM after 18 hrs by Western blotting analysis; format: functional, cell-based
Hep 3B2 [12] = assay: Induction of apoptosis in human Hep3B cells assessed as roundup morphology after 24 hrs by microscopic analysis; format: functional, cell-based
Tubulin (Sus scrofa) [13] = target: T1, Tubulin (Sus scrofa); assay: Induction of porcine tubulin polymerization at 80 uM measured for every 1 min for 60 mins by spectrophotometry; format: protein assay
Hep 3B2 [14] = assay: Disruption of alpha-tubulin networks in human Hep3B cells assessed as increasing acetylated-tubulin signal at 80 to 160 uM after 18 hrs by immunofluorescence assay; format: cell-based
[15] = Cell cycle arrest in human Hep3B cells assessed as accumulation at S phase at 80 uM after 24 hrs by flow cytometry (reference value: 11.18%); format: functional, cell-based; conditions: Hep 3B2
[16] = Cell cycle arrest in human Hep3B cells assessed as accumulation at G0/G1 phase at 27 uM after 24 hrs by flow cytometry (reference value: 52.99%); format: functional, cell-based; conditions: Hep 3B2
[17] = Binding affinity to porcine brain alphabeta-tubulin using ForteBio's Octet system; format: tissue-based, Sus scrofa
[18] = Cell cycle arrest in human Hep3B cells assessed as increased the phosphorylation of histone H3 at 80 to 160 uM after 24 hrs by immunofluorescence assay; format: functional, cell-based; conditions: Hep 3B2
Hep 3B2 [19] = assay: Induction of chromosome mislocalization in human Hep3B cells at 80 to 160 uM after 18 hrs by immunofluorescence assay; format: functional, cell-based
[20] = target: Apoptosis regulator Bcl-2 (Homo sapiens) (UniProt P10415); assay: Induction of Bcl-2 phosphorylation at Ser70 in human Hep3B cells at 160 uM after 18 hrs by Western blotting analysis; format: cell-based; conditions: Hep 3B2
Chain of Apoptosis regulator Bcl-2 (Homo sapiens) (P10415 whole entry): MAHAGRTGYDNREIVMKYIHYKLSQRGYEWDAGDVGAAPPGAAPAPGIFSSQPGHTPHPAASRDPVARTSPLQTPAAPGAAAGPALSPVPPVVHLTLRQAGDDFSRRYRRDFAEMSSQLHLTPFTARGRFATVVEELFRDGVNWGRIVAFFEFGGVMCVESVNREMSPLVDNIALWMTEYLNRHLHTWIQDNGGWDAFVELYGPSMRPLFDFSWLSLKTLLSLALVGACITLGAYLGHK

Hep 3B2 [21] = assay: Induction of apoptosis in human Hep3B cells assessed as roundup morphology after 48 hrs by microscopic analysis; format: functional, cell-based
[22] = Cell cycle arrest in human Hep3B cells assessed as accumulation at M phase at 80 uM after 24 hrs by flow cytometry (reference value: 6.24 +/- 2.14%); format: functional, cell-based; conditions: Hep 3B2
MDA-MB-231 [23] = assay: Induction of apoptosis in human MDA-MB-231 cells assessed as roundup morphology after 24 hrs by microscopic analysis; format: functional, cell-based
[24] = Cell cycle arrest in human Hep3B cells assessed as accumulation at subG1 phase at 27 uM after 24 hrs by flow cytometry (reference value: 1.14%); format: functional, cell-based; conditions: Hep 3B2
[25] = Cell cycle arrest in human Hep3B cells assessed as accumulation at subG1 phase at 0.5 uM after 24 hrs by flow cytometry (reference value: 1.14%); format: functional, cell-based; conditions: Hep 3B2
Hep 3B2 [26] = assay: Disruption of alpha-tubulin networks in human Hep3B cells at 80 to 160 uM after 18 hrs by immunofluorescence assay; format: cell-based
MDA-MB-231 [27] = assay: Induction of apoptosis in human MDA-MB-231 cells assessed as roundup morphology after 48 hrs by microscopic analysis; format: functional, cell-based
[28] = Cell cycle arrest in human Hep3B cells assessed as accumulation at G0/G1 phase at 80 uM after 24 hrs by flow cytometry (reference value: 52.99%); format: functional, cell-based; conditions: Hep 3B2
[29] = Cell cycle arrest in human Hep3B cells assessed as accumulation at G2/M phase at 160 uM after 24 hrs by flow cytometry (reference value: 24.37%); format: functional, cell-based; conditions: Hep 3B2
[30] = Cell cycle arrest in human Hep3B cells assessed as accumulation at S phase at 0.5 uM after 24 hrs by flow cytometry (reference value: 11.18%); format: functional, cell-based; conditions: Hep 3B2
Hep 3B2 [31] = assay: Induction of apoptosis in human Hep3B cells assessed as induction of caspase-3 cleavage at 27 to 160 uM after 18 hrs by Western blotting analysis; format: functional, cell-based
Homo sapiens = species on record: Homo sapiens; assay: Induction of Histone H3 Ser10 phosphorylation in human […] cells at 80 to 160 uM after 18 hrs by immunofluorescence staining; format: cell-based
Hep 3B2 [32] = assay: Disruption of alpha-tubulin networks in human Hep3B cells assessed as induction of polyglutamylated-tubulin bleb formation at 80 to 160 uM after 18 hrs by immunofluorescence assay; format: cell-based
[33] = Cell cycle arrest in human Hep3B cells assessed as accumulation at G2/M phase at 0.5 uM after 24 hrs by flow cytometry (reference value: 24.37%); format: functional, cell-based; conditions: Hep 3B2
[34] = Cell cycle arrest in human Hep3B cells assessed as accumulation at G2/M phase at 27 uM after 24 hrs by flow cytometry (reference value: 24.37%); format: functional, cell-based; conditions: Hep 3B2
HeLa [35] = assay: Inhibition of microtubule dynamics in human HeLa cells expressing EB1-EGFP at 80 to 160 uM after 1 min by image time-lapse analysis; format: functional, cell-based
HeLa [36] = assay: Up-regulation of geminin-GFP in human HeLa cells at 160 uM after 18 hrs by FUCCI analysis; format: functional, cell-based
[37] = Cell cycle arrest in human Hep3B cells assessed as accumulation at S phase at 27 uM after 24 hrs by flow cytometry (reference value: 11.18%); format: functional, cell-based; conditions: Hep 3B2
Hep 3B2 [38] = assay: Disruption of alpha-tubulin networks in human Hep3B cells assessed as increasing acetylated-tubulin signal at 10 nM after 18 hrs by immunofluorescence assay; format: cell-based
Hep 3B2 [39] = assay: Disruption of alpha-tubulin networks in human Hep3B cells at 10 nM after 18 hrs by immunofluorescence assay; format: cell-based
[40] = Cell cycle arrest in human Hep3B cells assessed as increase of cells with misaligned chromosomes at 10 nM after 24 hrs by immunofluorescence assay; format: functional, cell-based; conditions: Hep 3B2
[41] = Cell cycle arrest in human Hep3B cells assessed as induction of prometaphase arrest at 10 nM after 24 hrs by immunofluorescence assay; format: functional, cell-based; conditions: Hep 3B2
Hep 3B2 [42] = assay: Disruption of alpha-tubulin networks in human Hep3B cells assessed as induction of polyglutamylated-tubulin bleb formation at 10 nM after 18 hrs by immunofluorescence assay; format: cell-based
Tubulin (Homo sapiens) = Tubulin (Homo sapiens) (UniProt P68371+Q9H4B7+P0DPH7+P68366+Q13509+Q71U36+P04350+Q3ZCM7+P07437+P68363+Q9BQE3+Q6PEY2+Q13885+Q9BVA1+Q9BUF5); assay: Disruption of gamma-tubulin networks in human Hep3B cells at 10 nM after 18 hrs by immunofluorescence assay; format: cell-based; conditions: Hep 3B2

With CCC(C)[C@@H]1NC(=O)[C@@H](Cc2ccccc2)n2c1nc1c(c2=O)C=CC=CO1 (some centres undefined) [PROTUBOXEPIN A] as the molecule, how does the Activity [1] read?
Its Activity is 23.7%.

And the inhibition [2]?
Its inhibition is “Active”.

And the Activity [3]?
The Activity was 7.44%.

And the Activity [4]?
The Activity was 39.5%.

What about the Activity [5] of the same molecule?
The Activity was 34.4%.

What about the Activity (Tubulin (Sus scrofa) [6]) of the same molecule?
The Activity was “Active”.

What about the Activity [7] of the same molecule?
The Activity was “Active”.

What about the Activity [8] of the same molecule?
Its Activity is 20.8%.

And the Activity (Hep 3B2 [9])?
Its Activity is “Active”.

What about the Activity [10] of the same molecule?
The Activity was 6.12%.

What about the Activity (Hep 3B2 [11]) of the same molecule?
Its Activity is “Active”.

And the Activity (Hep 3B2 [12])?
Its Activity is “Dose-dependent effect”.

What about the Activity (Tubulin (Sus scrofa) [13]) of the same molecule?
The Activity was “Active”.

And the Activity (Hep 3B2 [14])?
Its Activity is “Active”.

What about the Activity [15] of the same molecule?
The Activity was 10.8%.

And the Activity [16]?
The Activity was 49.1%.

What about the Kd [17] of the same molecule?
The Kd was 71.3 µM.

And the Activity [18]?
Its Activity is “Active”.

And the Activity (Hep 3B2 [19])?
Its Activity is “Active”.

What about the Activity [20] of the same molecule?
Its Activity is “Active”.

And the Activity (Hep 3B2 [21])?
Its Activity is “Dose-dependent effect”.

What about the Activity [22] of the same molecule?
Its Activity is 18.8%.

And the Activity (MDA-MB-231 [23])?
The Activity was “Dose-dependent effect”.

What about the Activity [24] of the same molecule?
Its Activity is 2.26%.

What about the Activity [25] of the same molecule?
Its Activity is 7%.

What about the Activity (Hep 3B2 [26]) of the same molecule?
The Activity was “Active”.

What about the Activity (MDA-MB-231 [27]) of the same molecule?
Its Activity is “Dose-dependent effect”.

What about the Activity [28] of the same molecule?
Its Activity is 41.9%.

And the Activity [29]?
Its Activity is 46.7%.

What about the Activity [30] of the same molecule?
Its Activity is 7.31%.

What about the Activity (Hep 3B2 [31]) of the same molecule?
Its Activity is “Active”.

And the Activity (Homo sapiens)?
Its Activity is “Active”.

And the Activity (Hep 3B2 [32])?
The Activity was “Active”.

And the Activity [33]?
The Activity was 20.5%.

What about the Activity [34] of the same molecule?
The Activity was 26%.

What about the inhibition (HeLa [35]) of the same molecule?
The inhibition was “Active”.

What about the Activity (HeLa [36]) of the same molecule?
Its Activity is “Active”.

What about the Activity [37] of the same molecule?
Its Activity is 10.1%.

Which Activity (Hep 3B2 [38]) does the source give for CC(=O)O[C@H]1C(=O)[C@@]2(C)[C@H]([C@H](OC(=O)c3ccccc3)[C@]3(O)C[C@H](OC(=O)[C@H](O)[C@@H](NC(=O)c4ccccc4)c4ccccc4)C(C)=C1C3(C)C)[C@]1(OC(C)=O)CO[C@@H]1C[C@@H]2O here?
Its Activity is “Active”.

What about the Activity (Hep 3B2 [39]) of the same molecule?
The Activity was “Active”.

What about the Activity [40] of the same molecule?
The Activity was “Active”.

And the Activity [41]?
Its Activity is “Active”.

And the Activity (Hep 3B2 [42])?
Its Activity is “Active”.

And the Activity (Tubulin (Homo sapiens))?
Its Activity is “Active”.
